Target: T1, ITPKb (Mus musculus, UniProt B2RXC2)
T1 construct: murine ITPKb residues 640-942; MGSDKIHHHHHH (His6 tag from MH4 plasmid) (N); made in house; host or cells: Escherichia coli HK100
T1 sequence (B2RXC2 640-942): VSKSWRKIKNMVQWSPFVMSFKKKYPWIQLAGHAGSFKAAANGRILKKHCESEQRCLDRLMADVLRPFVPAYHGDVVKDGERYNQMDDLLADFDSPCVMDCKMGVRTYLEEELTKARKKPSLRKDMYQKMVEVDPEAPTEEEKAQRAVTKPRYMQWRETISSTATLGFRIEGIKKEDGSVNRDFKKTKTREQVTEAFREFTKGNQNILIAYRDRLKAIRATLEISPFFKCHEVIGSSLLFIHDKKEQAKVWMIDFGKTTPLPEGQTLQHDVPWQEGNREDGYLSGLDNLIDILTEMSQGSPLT
Test: Biochemical measurement of ITPKb activity (Kinase-Glo ATP depletion assay); inhibiting the phosphorylation of IP3 to IP4
Parameters: species or system murine
Conditions: Table 1; inhibiting the phosphorylation of IP3 to IP4; read-out: IC50
Method: Compounds of the present invention are assayed to measure their capacity to inhibit ITPKb according to the following assays.
The DNA sequence encoding murine ITPKb residues 640-942 is amplified from a full-length construct in mammalian expression vector pKDNZ by PCR. The 3′-primer incorporates a stop codon and an overhanging PacI site. The product is digested with Pad before being ligated into the MH4 plasmid which has been prepared by digestion with PmlI and PacI. Cloning into the MH4 plasmid adds the sequence MGSDKIHHHHHH to the N-terminus of the translated region. Mutant enzymes are made by site-directed mutagenesis using the Stratagene Quikchange kit.
ITPKb is expressed in the HK100 strain of Escherichia coli. Typically, a 4 L batch of cells is grown in LB with […] ampicillin to 0.5 A600 at 30 degrees C., before induction with 0.02% L-arabinose for 6 hours. Cells are harvested by centrifugation, and pellets are resuspended in 50 mL of 50 mM Tris (pH 8), 100 mM NaCl, 1 mM TCEP, and 0.1 mg/mL lysozyme, with 1 Complete protease inhibitor tablet (Roche). Cells are disrupted by sonication, and debris is removed by centrifugation for 40 minutes at 35000 g.
Initial purification is performed using three nickel-Sepharose Hi-Trap HP 1 mL columns (Amersham) connected in series. After application of the pellet supernatants, the bound material is washed with 20 mM Tris (pH 8.0), 20 mM imidazole, 10% glycerol (v/v), and 1 mM TCEP before elution with an imidazole gradient up to 200 mM.
Fractions containing ITPKb are identified by SDS-PAGE, and the pure fractions are concentrated and buffer exchanged using centriprep 20 15 kDa columns into 20 mM Tris (pH 8), 200 mM KCl, 5 mM MgCl2, 0.5 mM DTT, 10% glycerol, 1 μM IP3, and 20 μM ATP to a final protein concentration of 7 mg/mL.
ITPKb activity is determined using the Kinase-Glo (Promega) ATP depletion assay. The assay reaction buffer consists of 50 mM Tris (pH 8.0), 100 mM NaCl, 1 mM DTT, 10% glycerol, 5 mM MgCl2, 1 μM ATP, and 10 μM IP3 (Alexis Biochemicals). 50 nl of inhibitor is then added to each 40 μL reaction followed by a 10 μL addition of purified ITPKb (final concentration of 60 nM). The reaction mixture is incubated for 60 minutes at room temperature and stopped by the addition of an equal volume of kinase-glo reagent (Promega). Luminescence is measured using a Molecular Devices Acquest instrument.

Compound | IC50 [nM]
C[C@@H]1CN(Cc2c[nH]nc2C(=O)N2CC(O)C2)CCN1c1ccc(C(F)(F)F)cn1 [Example 34] | > 10000
C[C@@H]1CN(Cc2c[nH]nc2C(=O)N2CCC(O)C2)CCN1c1ccc(C(F)(F)F)cn1 (stereo partly drawn) [Example 35] | > 10000
C[C@@H]1CN(Cc2c[nH]nc2C(=O)N2CCC(O)CC2)CCN1c1ccc(C(F)(F)F)cn1 [Example 36] | > 10000
COC(=O)c1ccc(-c2n[nH]cc2CN2CCN(c3ccc(C(F)(F)F)cn3)[C@H](C)C2)o1 [Example 37] | 984
C[C@@H]1CN(Cc2c[nH]nc2-c2ccc(C(=O)O)o2)CCN1c1ccc(C(F)(F)F)cn1 [Example 38] | 435
C[C@@H]1CN(Cc2c[nH]nc2-c2ccnc3[nH]ccc23)CCN1c1ccc(C(F)(F)F)cn1 [Example 40] | 478
C[C@@H]1CN(Cc2c[nH]nc2-c2cc(C(=O)N(C)C)c[nH]2)CCN1c1ccc(C(F)(F)F)cn1 [Example 41] | 85
C[C@@H]1CN(Cc2c[nH]nc2-c2c[nH]c3ncccc23)CCN1c1ccc(C(F)(F)F)cn1 [Example 44] | 182
C[C@@H]1CN(Cc2c[nH]nc2/C=C2\NC(=S)NC2=O)CCN1c1ccc(C(F)(F)F)cn1 [Example 46] | > 10000
C[C@@H]1CN(Cc2c[nH]nc2C2CCNCC2)CCN1c1ccc(C(F)(F)F)cn1 [Example 48] | 431
C[C@@H]1CN(Cc2c[nH]nc2C2CCN(C=O)CC2)CCN1c1ccc(C(F)(F)F)cn1 [Example 49] | 241
C[C@@H]1CN(Cc2c[nH]nc2/C=C2\NC(=N)NC2=O)CCN1c1ccc(C(F)(F)F)cn1 [Example 50] | 99
C[C@@H]1CN(Cc2c[nH]nc2-c2cc(C(=O)O)co2)CCN1c1ccc(C(F)(F)F)cn1 [Example 52] | 1040

These reach a lower IC50. Values come first.

IC50 [nM] | Compound
8 | C[C@@H]1CN(Cc2c[nH]nc2-c2ccc(C(N)=O)o2)CCN1c1ccc(C(F)(F)F)cn1 [Example 39]
14 | C[C@@H]1CN(Cc2c[nH]nc2-c2cc(C(=O)NCCO)c[nH]2)CCN1c1ccc(C(F)(F)F)cn1 [Example 42]
14 | CC(O)CNC(=O)c1c[nH]c(-c2n[nH]cc2CN2CCN(c3ccc(C(F)(F)F)cn3)[C@H](C)C2)c1 (stereo partly drawn) [Example 43]
6 | C[C@@H]1CN(Cc2c[nH]nc2-c2cc(C(=O)N[C@@H](C)CO)c[nH]2)CCN1c1ccc(C(F)(F)F)cn1 [Example 45]
66 | CC(=O)N1CC=C(c2n[nH]cc2CN2CCN(c3ccc(C(F)(F)F)cn3)[C@H](C)C2)CC1 [Example 47]
2 | NC(=O)c1c[nH]c(-c2n[nH]cc2CN2CCN(c3ccc(C(F)(F)F)cn3)[C@H](C(F)(F)F)C2)c1 [Example 51]
78 | C[C@@H]1CN(Cc2c[nH]nc2-c2cc(C(N)=O)co2)CCN1c1ccc(C(F)(F)F)cn1 [Example 53]
80 | C[C@@H]1CN(Cc2c[nH]nc2C2=CCN(C(=O)CCO)CC2)CCN1c1ccc(C(F)(F)F)cn1 [Example 54]

Source: patent publication US20110263610A1, “COMPOUNDS AND COMPOSITIONS AS ITPKB INHIBITORS” (IRM LLC, priority 2008, published 2011)
